These results are taken from patent publication US20230149337A1, “OPHTHALMIC FORMULATION AND ITS USE” (OY FINNSUSP AB, priority 2020, published 2023).

Structures are written as SMILES. Converted amounts (≈) assume the structure as drawn. Like-named read-outs stand apart in the source and are kept apart here.

The term solubility denotes the concentration that dissolves in the medium under given conditions.

Data set [1] in a line: Solubility of dexamethasone in microemulsion formulations. The class given is physicochemical. Particulars: for solubility: aqueous with cosolvent or surfactant or cyclodextrin, equilibrium from dmso stock, room temperature, 8-9 days, read-out: Solubility of DXM. The procedure: The solubility of dexamethasone (DXM) in the microemulsion formulations was studied. To formulations containing 0.1%, 0.5%, 1%, or 5% of the sacha inchi seed oil, DXM ([…] stock in dimethyl sulfoxide, DMSO) was added at concentrations of […] in triplicate. […] The test vials were incubated at room temperature with continuous shaking (90 rpm) for 8-9 days until equilibrium. After incubation, the samples were mixed 1:1 with acetonitrile for 10 min and centrifuged (13,000 rpm, 10 min), followed by immediate HPLC analysis of the supernatant for DXM concentration. HPLC analysis was performed with Agilent 1100 series HPLC system and Eclipse XDB-C18 column (1.8 μm, 4.6×50 mm; Agilent) maintained at 60° C. Isocratic elution of the 5-μl sample injected was performed with 65% Eluent A (1% TFA in Milli-Q water) and 35% Eluent B (0.1% TFA in acetonitrile) at flow rate 1 ml/min and UV detection at 240 nm.

The nature of data set [2]: Langmuir trough: surface pressure isotherms and BAM of pure films. In kind it is physicochemical. Particulars: pure film under compression. As for the experimental part:
The interactions of the microemulsion formulation SIME02A explained in Example 2 with a tear film lipid layer (TFLL) component were studied in a Langmuir trough model system. A naturally occurring lipid 20 (oleoyloxy)icosanoic acid (20-OAHFA) which represents the O-acyl-ω-hydroxy fatty acids in the TFLL was selected as a model lipid and synthesized as described in Bland et al. Langmuir 2019, 35, 3545-3552. The experiments were performed on a KSV NIMA Large trough equipped with a surface pressure balance with a platinum Wilhelmy plate, a KSV SPOT surface potential meter and KSV NIMA microBAM Brewster angle microscope (BAM), all from Biolin Scientific (Stockholm, Sweden). The Langmuir trough system was enclosed in a plastic hood with an inlet supply of dry and ozone-depleted air (Ozone solutions ODS-3P, Hull, Iow. USA) to prevent oxidation of lipids.
The Langmuir trough was filled with phosphate-buffered saline (PBS) as a subphase maintained at 35±1° C. to emulate the aqueous layer of the tear film. The model lipid 20-OAHFA or pure sacha inchi (SI) seed oil was dissolved in chloroform and spread on the surface of the PBS subphase. Chloroform was allowed to evaporate for 5 min. […] The lipid film was compressed and expanded in the trough with two Delrin barriers at a rate of 13 mm/min while the surface pressure and surface potential were measured. […]

`C[C@@H]1C[C@H]2[C@@H]3CCC4=CC(=O)C=C[C@]4(C)[C@@]3(F)[C@@H](O)C[C@]2(C)[C@@]1(O)C(=O)CO` [DXM, Dexamethasone]: the “Solubility of DXM relative to PBS” value in data set [1] (1% oil concentration in the formulation) is 2.5 times; in data set [1] (microemulsion with 5% oil), “about 15 times”; in data set [1] (microemulsions with lower oil concentrations), “at the same level as in PBS”. The solubility in data set [1] (microemulsion formulation with 5% sacha inchi seed oil, microemulsion with 5% oil) is approximately 3700 µg/mL (≈ 9.43 mM); in data set [1] (phosphate-buffered saline (PBS), PBS alone) it was approximately 250 µg/mL (≈ 0.637 mM).

`CCCCCCCC/C=C\CCCCCCCC(=O)OCCCCCCCCCCCCCCCCCCCC(=O)O` [20-OAHFA, 20 (oleoyloxy)icosanoic acid]: in data set [2], the “Surface pressure of transition to a solid monolayer” value is 2.5 mN/m.
